For test [1], the target named is T1, HCV-NS5BΔ21 RdRp genotype 1b (strain J4) (Hepatitis C virus genotype 1b, UniProt O92972). The experiment in a line: biochemical. Particulars: range over three genotypes; read-out: IC50 in the enzyme assay, genotypes 1b, 1a and 2a. Here is the method:
(§1) The HCV RdRps (NS5B protein) from reference strains H77 (genotype 1a), J4 (genotype 1b) and JFH1 (genotype 2a), truncated of their 21 C-terminal amino acids to ensure solubility (NS5BΔ21) and carrying a hexahistidine tag (His6-Tag) at their N-terminus, were expressed in Escherichia coli C41(DE3) and purified as previously described ([20]). Briefly, cultures were grown at 37°C for ∼1 h and induced with 1 mM isopropyl β-D-thiogalactoside for 4 h at 37°C. […] After sonication, cell lysates were clarified by centrifugation, and chromatography was performed on a Ni-NTA column (Qiagen, Hilden, Germany). The bound protein was eluted in 1 ml fractions with a buffer containing 50 mM NaH2PO4 (pH 8.0), 500 mM NaCl and 250 mM imidazole. NS5BΔ21-enriched fractions were selected using a Bradford colorimetric assay, and HCV-NS5BΔ21 purity was determined by Coomassie-stained sodium dodecyl sulfate-polyacrylamide electrophoresis gel (SDS-PAGE) analysis. Purified NS5BΔ21 fractions were pooled and dialyzed against a buffer containing 5 mM Tris (pH 7.5), 0.2 M sodium acetate, 1 mM DTT, 1 mM ethylenediaminetetraacetic acid (EDTA) and 10% glycerol. […]

Another test deals with RNA duplex. The experiment in a line: RNA duplex fluorescence assay. Conditions: 20 μM compound.
Test [2] has as its system HCV-NS5BΔ21 RdRp mutants. In kind it is biochemical, hepatitis C virus. Conditions: S96A and G557A mutants. The text has this:
(§2) The cell-free HCV-NS5BΔ21 polymerase assay is based on the real-time measurement of the amount of double-stranded RNA synthesized in the presence of HCV-NS5BΔ21, a homopolymeric RNA template (poly U or poly C, GE Healthcare, Chalfont St. Giles, UK) and the corresponding nucleotide, by means of an intercalating agent (SYBR® Green, Applied Biosystems, Carlsbad, CA, USA), as previously described ([20]). For screening, HCV-NS5BΔ21 polymerase activity was quantified by the slope of fluorescence increase in the presence of 20 μM of the tested flavonoid compounds and compared with the control reaction containing no inhibitor. […] The reported values are the average of three independent measurements performed in duplicate. For kinetics analysis, initial reaction velocities were measured at different nucleotide (adenosine triphosphate (ATP) or GTP) and studied compound concentrations, without pre-incubation and in the presence of 50 μg/ml of the corresponding homopolymeric RNA template (Poly U and Poly C, respectively). The concentration of NS5BΔ21 (J4 strain, genotype 1b) in the reaction was 0.1 mg/ml. Kinetics data were graphically represented as double reciprocal plots. Data points were fitted by linear regression to identify the inhibition mode of the compound.

Test [3] has as its target T2, HCV-NS5BΔ21 RdRp mutants (Hepatitis C virus genotype 1b, UniProt O92972, F2581Y).
T2 construct: His6 (N); made in house; host or cells: Escherichia coli C41(DE3)
The format is biochemical. Particulars: F162Y variant (33% of wild-type activity at baseline).
Text: as §2

Test [4] deals with T3, HCV-NS5BΔ21 RdRp mutants (Hepatitis C virus genotype 1b, UniProt O92972, V2535I).
T3 construct: His6 (N); made in house; host or cells: Escherichia coli C41(DE3)
T3 sequence (O92972 2420-2989 V2535I): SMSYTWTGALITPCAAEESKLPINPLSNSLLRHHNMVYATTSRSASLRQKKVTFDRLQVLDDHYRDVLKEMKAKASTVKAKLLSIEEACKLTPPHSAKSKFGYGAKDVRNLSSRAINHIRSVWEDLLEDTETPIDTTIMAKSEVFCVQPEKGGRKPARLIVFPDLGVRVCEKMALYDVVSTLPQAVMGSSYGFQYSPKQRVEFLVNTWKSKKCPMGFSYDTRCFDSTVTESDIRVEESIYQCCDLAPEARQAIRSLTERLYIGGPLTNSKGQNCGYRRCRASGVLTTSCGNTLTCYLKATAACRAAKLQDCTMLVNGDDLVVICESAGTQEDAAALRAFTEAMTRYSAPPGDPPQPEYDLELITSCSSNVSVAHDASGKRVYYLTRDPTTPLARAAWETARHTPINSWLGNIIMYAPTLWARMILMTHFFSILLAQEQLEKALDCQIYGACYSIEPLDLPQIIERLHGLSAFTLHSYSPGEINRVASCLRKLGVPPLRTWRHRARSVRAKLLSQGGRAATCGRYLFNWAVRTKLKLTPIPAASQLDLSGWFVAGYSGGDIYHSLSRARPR
The format is biochemical. Particulars: enzyme assay and genotype 1b subgenomic replicon, data not shown.
Text: as §2

In test [5] the target is T4, HCV-NS5BΔ21 RdRp genotype 1a (strain H77) (Hepatitis C virus genotype 1a, UniProt P27958).
T4 construct: His6 (N); made in house; host or cells: Escherichia coli C41(DE3)
T4 sequence (P27958 2421-2990, stated change not applied): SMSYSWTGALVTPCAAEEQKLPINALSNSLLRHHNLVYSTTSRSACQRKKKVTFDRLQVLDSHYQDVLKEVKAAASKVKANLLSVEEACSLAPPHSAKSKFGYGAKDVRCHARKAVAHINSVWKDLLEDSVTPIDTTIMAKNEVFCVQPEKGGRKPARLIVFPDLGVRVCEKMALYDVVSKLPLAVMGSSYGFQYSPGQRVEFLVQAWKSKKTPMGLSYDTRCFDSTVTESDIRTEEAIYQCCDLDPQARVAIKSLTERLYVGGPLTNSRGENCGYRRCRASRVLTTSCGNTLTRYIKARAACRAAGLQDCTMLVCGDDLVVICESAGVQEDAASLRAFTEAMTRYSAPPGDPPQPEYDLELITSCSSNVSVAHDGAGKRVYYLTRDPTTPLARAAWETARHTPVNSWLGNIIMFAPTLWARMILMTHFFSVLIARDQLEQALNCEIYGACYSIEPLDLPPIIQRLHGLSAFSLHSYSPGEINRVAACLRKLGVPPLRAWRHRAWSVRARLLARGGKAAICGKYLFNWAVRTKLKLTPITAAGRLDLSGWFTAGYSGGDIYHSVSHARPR
The experiment in a line: cell-free HCV-NS5BΔ21 polymerase assay, genotype 1a (H77). In kind it is biochemical. Here is the method:
as §1

Test [6] concerns HCV genotype 1b subgenomic replicon Con1. The experiment in a line: microbe, parasite or virus in culture. Conditions: Hepatitis C virus, Huh7.5, 72 h, read-out: EC50 replicon replication. How it is done:
Each data point represents the average of at least three replicates in cell culture. HCV RNA level reductions after treatment were assessed by comparing the level of HCV RNA in compound-treated cells to that of control cells treated with 1% DMSO.

The test system of test [7] is HCV NS5B protein expression. The experiment in a line: Western blot analysis of NS5B in Con1 replicon cells. In kind it is cell-based, hepatitis C virus. Conditions: Huh7.5 cells, 72 h, increasing concentrations. How it is done:
HCV Con1 replicon-harboring cells were seeded at a density of 90 000 cells per well in 6-well plates. […] NS5B and actin were detected using specific monoclonal antibodies (Enzo Life Sciences, Firmingdale, NY, USA and Sigma Aldrich, Saint Louis, MO, USA, respectively).

Test [8] relates to genotype 2a infectious J6/JFH1 strain. The experiment in a line: J6/JFH1 infection in cell culture (HCVcc, Huh7.5 cells). The format is cell-based. Particulars: Hepatitis C virus, Huh7.5, 72 h, read-out: EC50 J6/JFH1 replication. Here is the method:
The plasmid pFL-R-luc2A-ubi-J6/JFH1, containing the full-length cDNA of the chimeric J6/JFH1 HCV genotype 2a clone and the Renilla luciferase gene, was used to generate infectious HCV particles (HCVcc) in Huh7.5 cell culture. Huh7.5 cells were seeded in 48-well plates at a density of 10 000 cells/well, infected 24 h later with 100 μl of HCVcc and incubated overnight at 37°C. After incubation, the supernatants were removed and J6/JFH1-infected cells were washed with fresh medium. Increasing concentrations of the tested compounds were added in a medium containing 1% DMSO, and the cells were incubated 72 h at 37°C. Then, the cells were washed once with Dulbecco's PBS (Invitrogen), and 75 μl Renilla lysis buffer (Promega) was added to each well. Note that 20 μl of lysate was mixed with the luciferase assay substrate, as specified by the manufacturer. Luciferase activity was measured for 10 s in a Berthold luminometer.

Test [9] deals with T1, HCV-NS5BΔ21 RdRp genotype 1b (strain J4). The experiment in a line: biochemical. Also noted: His6 (N); made in house; host or cells: Escherichia coli C41(DE3). Particulars: for inhibition at 20 µM / Slope of fluorescence increase: 20 μM compound; for Slope of fluorescence increase: no treatment control slope 62.0. Here is the method: The HCV RdRps (NS5B protein) from reference strains H77 (genotype 1a), J4 (genotype 1b) and JFH1 (genotype 2a), truncated of their 21 C-terminal amino acids to ensure solubility (NS5BΔ21) and carrying a hexahistidine tag (His6-Tag) at their N-terminus, were expressed in Escherichia coli C41(DE3) and purified as previously described ([20]). Briefly, cultures were grown at 37°C for ∼1 h and induced with 1 mM isopropyl β-D-thiogalactoside for 4 h at 37°C. […] After sonication, cell lysates were clarified by centrifugation, and chromatography was performed on a Ni-NTA column (Qiagen, Hilden, Germany). The bound protein was eluted in 1 ml fractions with a buffer containing 50 mM NaH2PO4 (pH 8.0), 500 mM NaCl and 250 mM imidazole. NS5BΔ21-enriched fractions were selected using a Bradford colorimetric assay, and HCV-NS5BΔ21 purity was determined by Coomassie-stained sodium dodecyl sulfate-polyacrylamide electrophoresis gel (SDS-PAGE) analysis. Purified NS5BΔ21 fractions were pooled and dialyzed against a buffer containing 5 mM Tris (pH 7.5), 0.2 M sodium acetate, 1 mM DTT, 1 mM ethylenediaminetetraacetic acid (EDTA) and 10% glycerol.
as §2

In test [10] the target is T5, RNA binding to HCV-NS5BΔ21 (Hepatitis C virus genotype 1b, UniProt O92972).
T5 construct: made in house; host or cells: Escherichia coli C41(DE3)
T5 sequence (O92972 2420-2989, stated change not applied): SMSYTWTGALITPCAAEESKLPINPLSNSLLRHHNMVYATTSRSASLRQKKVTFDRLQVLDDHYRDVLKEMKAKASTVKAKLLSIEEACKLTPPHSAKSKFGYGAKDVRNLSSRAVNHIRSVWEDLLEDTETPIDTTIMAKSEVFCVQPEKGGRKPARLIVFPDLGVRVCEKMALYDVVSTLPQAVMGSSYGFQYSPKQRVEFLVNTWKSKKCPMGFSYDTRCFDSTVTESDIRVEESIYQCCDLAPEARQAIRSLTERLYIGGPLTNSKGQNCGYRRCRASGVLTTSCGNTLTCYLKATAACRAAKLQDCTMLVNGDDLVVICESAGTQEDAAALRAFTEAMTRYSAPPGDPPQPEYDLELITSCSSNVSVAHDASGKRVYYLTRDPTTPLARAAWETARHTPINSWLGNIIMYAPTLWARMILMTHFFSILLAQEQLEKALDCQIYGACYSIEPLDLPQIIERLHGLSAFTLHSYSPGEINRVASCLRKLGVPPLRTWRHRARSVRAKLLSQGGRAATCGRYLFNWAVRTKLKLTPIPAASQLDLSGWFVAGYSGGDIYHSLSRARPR
The experiment in a line: RNA binding assay (EMSA). Particulars: fixed concentration of HCV-NS5BΔ21, increasing compound. Here is the method: RNA binding was studied by means of the electrophoretic mobility shift assay (EMSA) with minor modifications. Briefly, 0.5 μg/ml of HCV-NS5BΔ21 was incubated with 1 μg of a 500 bp RNA at 37°C for 30 min in 20 μl of a binding buffer containing 10 mM Tris pH 7.5, 1 mM EDTA, 100 mM KCl, 0.1 mM DTT, 5% vol/vol glycerol, 10 μg/ml bovine serum albumin (BSA), in the presence of increasing concentrations of the tested compound. Samples were then loaded onto a non-denaturing agarose gel. The gel was incubated 20 min in SYBR green EMSA Nucleic Acid Gel Stain (Invitrogen, Carlsbad, CA, USA). After washing, the gel was visualized under ultraviolet transillumination.

Test [11] concerns the target T5, RNA binding to HCV-NS5BΔ21. The experiment in a line: HCV-NS5BΔ21-RNA ELISA assay. Particulars: dose-dependent.
Description: Ninety-six-well plates were coated with streptavidin (100 μg/ml in 0.1 M NaHCO3, 50 μl/well) overnight at 4°C. The plates were washed six times with 200 μl phosphate-buffered saline (PBS)-T and blocked with 50 μl of 3% BSA and 0.1 μg/ml of streptavidin in PBS overnight at 4°C, then four times with 0.1% PBS-Tween. A mix of 5 pmol of biotinylated RNA and 0.5 μg of HCV-NS5BΔ21 previously incubated for 30 min at 37°C in a binding buffer containing 50 mM Tris (pH 7.5), 150 mM NaCl, 0.02 mg/ml yeast tRNA and 0.2 mg/ml BSA was added (50 μl/well) and incubated 1 h at room temperature. The plates were washed six times with 200 μl/well PBS-T, and the 6His mAB/HRP conjugate (Clontech, Mountain View, CA, USA) in PBS 1:1000 (50 μl/well) was added and incubated for 1 h at room temperature. The plates were washed six times with 200 μl/well PBS-T. A mix of enhanced chemiluminescence reagent was added (50 μl/well) and luminescence was measured.
The target in test [12] is T6, HCV-NS5BΔ21 RdRp genotype 2a (strain JFH1) (Hepatitis C virus genotype 2a, UniProt Q99IB8).
T6 construct: His6 (N); made in house; host or cells: Escherichia coli C41(DE3)
The experiment in a line: cell-free HCV-NS5BΔ21 polymerase assay, genotype 2a (JFH1). In kind it is biochemical. Here is the method: as §1

Like-named read-outs stand apart in the source and are kept apart here.

T1 sequence (O92972 2420-2989, stated change not applied): as above
T2 sequence (O92972 2420-2989 F2581Y): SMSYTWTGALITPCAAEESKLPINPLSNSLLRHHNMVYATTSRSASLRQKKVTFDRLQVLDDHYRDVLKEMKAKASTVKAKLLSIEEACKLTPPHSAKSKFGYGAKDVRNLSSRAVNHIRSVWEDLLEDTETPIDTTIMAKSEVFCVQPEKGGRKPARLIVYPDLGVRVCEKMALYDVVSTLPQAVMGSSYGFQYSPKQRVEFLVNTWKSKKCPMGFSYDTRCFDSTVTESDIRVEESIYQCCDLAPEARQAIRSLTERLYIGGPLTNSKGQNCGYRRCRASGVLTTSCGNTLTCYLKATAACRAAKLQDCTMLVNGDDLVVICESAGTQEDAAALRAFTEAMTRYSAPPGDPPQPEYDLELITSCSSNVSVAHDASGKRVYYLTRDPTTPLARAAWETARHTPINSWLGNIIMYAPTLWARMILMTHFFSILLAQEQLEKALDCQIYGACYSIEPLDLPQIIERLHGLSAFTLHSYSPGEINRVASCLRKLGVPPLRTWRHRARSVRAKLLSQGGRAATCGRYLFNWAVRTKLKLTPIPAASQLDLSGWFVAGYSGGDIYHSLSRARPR

As to `O=c1c(O)c(-c2ccc(O)c(O)c2)oc2cc(O)c(O)c(O)c12` [Quercetagetin], the half-inhibitory concentration (IC50) in [1] was 2.8 to 6.1 µM; in test [5], 2.8 ± 0.4 µM; in [9] (genotype 1b (strain J4), read-out: IC50 HCV-NS5BΔ21 polymerase activity) it was 4.3 ± 0.7 µM; in [12], 6.1 ± 1.6 µM. Also, in the test with RNA duplex, the RNA duplex formation result was “not inhibited”. Further, the change of susceptibility entry in the test with HCV-NS5BΔ21 RdRp mutants [2] is reported as “No change”. Further, the “reduction of catalytic activity by the compound” value at HCV-NS5BΔ21 RdRp mutants [3] came to 3 fold. In addition, at HCV-NS5BΔ21 RdRp mutants [4], the “susceptibility of V116I variant” value is “did not reduce”. Further, the EC50 in test [6] is 5.4 ± 3.3 µM; in test [8], 40.2 ± 17.7 µM. In test [7], the NS5B protein expression entry is listed as “inhibited NS5B protein expression in a dose-dependent manner”. In addition, in test [9], at 20 µM the inhibition was 85.6%. Moreover, the “Slope of fluorescence increase” value in test [9] worked out at 8.9. Besides, in test [9] (increasing ATP or GTP with poly-U or poly-C), the “mode of inhibition (double-reciprocal plots)” value is recorded as “non-competitive”. In addition, the “amount of free RNA” value in test [10] was “increased in a quercetagetin concentration-dependent manner”. Further, the “inhibition of RNA binding, EC50” value in test [11] is “of the same order as that in the enzyme assay”.
On to `O=c1c(O)c(-c2cc(O)c(O)c(O)c2)oc2cc(O)ccc12` [Robinetin], for which, in test [9], the inhibition at 20 µM worked out at 55.9% and the “Slope of fluorescence increase” value turned out to be 27.4.
The corresponding values for `C[C@@H]1O[C@@H](OC[C@H]2O[C@@H](Oc3c(-c4ccc(O)c(O)c4)oc4cc(O)cc(O)c4c3=O)[C@H](O)[C@@H](O)[C@@H]2O)[C@H](O)[C@H](O)[C@H]1O` [Rutin] are 30.3% and 43.2.
